Here are results for eleven compounds from patent US12516086B2 (SRI International, priority 2021, dated 2026).

Ends that are not written are not given here.

What is called EC50 is the concentration at which the effect is half-maximal.

Series [1] has as its system HT-22 cells. Description: Receptor recycling: MGS_NOE3_V2-4 uptake with chloroquine or cycloheximide. In kind it is cell-based, mouse. Particulars: 100 nM MGS_NOE3_V2-4; 100 μM chloroquine or 250 μM cycloheximide; up to 24 h. As to the method: The cellular receptor for MGS_NOE3_V2-4 is recycled (FIG. 22). HT-22 cells were incubated with culture medium containing 100 nM MGS_NOE3_V2-4 in the presence of 100 μM chloroquine or 250 μM cycloheximide for the indicated times. The cellular uptake was analyzed by flow cytometry. […] New protein synthesis is not required for continued uptake of MGS_NOE3_V2-4. Endosomal acidification is required for continued uptake of MGS_NOE3_V2-4. MGS_NOE3_V2-4 uptake continues with time.
For experiments to determine if the cellular receptor is recycled, cells were treated with peptide in the presence of 100 μM chloroquine or 250 μM cycloheximide. At the indicated time points, the cells were washed and analyzed as described above.

For series [2], the system named is HT22 cells (mouse hippocampal neuronal cell line). In words: Peptide uptake by quantitative flow cytometry in HT22 cells. In kind it is cell-based. The settings on record: for Uptake into HT22 cells versus concentration (in words): 1 h at 37° C. As to the method:
FIG. 26A. […] FIG. 26B. […] FIG. 26C.
(§1) It must be on the tetrameric core to function. […] The number of molecules of peptide internalized per cell was determined by a quantitative flow cytometry assay. […] MGS_NOE3_V1-4 and MGS_NOE3_V2-4 display a 5-6-fold specificity for neurons over astrocytes and 3-fold specificity compared to microglia. […] Incubations were performed for 1 h at 37° C. […] Uptake was determined by flow cytometry assay.
(§2) Peptide concentration and incubation time as well as cell line used is indicated in each figure. […] Cells were removed by trypsinization. Flow cytometry was performed on a BD FACSCelesta, and data were analyzed using FlowJo_v10.8. Cells were gated based on the forward and side scatter to include only viable cells and a minimum of 10,000 events were counted. For absolute peptide uptake per cell, a standard curve was generated using Quantum™ Alexa Fluor 647 microspheres. MFI was determined at 50% at peak height. Molecules internalized per cell were determined by the standard curve relating MESF to MFI and divided by the number dye molecules/MGS conjugate. GraphPad Prism® was used for non-linear regression curve fitting to calculate an EC50.
For orientation: Flow cytometry measures light scatter and fluorescence of single cells or particles in a stream.

A short description of series [3]: human serum (Innovative Research, H6430). The settings on record: 37° C., up to 24 hours.
The test system of series [4] is HT22 and GT1/7 neuronal cell lines vs CTX TNA2 astrocytes and HMC3 microglia. Description: Uptake of MGS_NOE3 tetramers across cell lines by quantitative flow cytometry. In kind it is cell-based, mouse, rat, human. Particulars: 200 nM, 1 h. How it is done: as §1, §2
The subject of series [5] is brain cells. Description: Brain cell association after intrathecal injection, flow cytometry. The settings on record: Alexa Fluor 647 label, 1 hr circulation, compared to naïve animals. It is filed as in vivo, C57BL/6 mouse. From the text: (A) Gating strategy for total brain cells vs debris. (B) Gating strategy excluding cell doublets. FIG. 24C indicates the fluorescent intensity of MGS_NOE3-V2-4 internalized into brain cells following intrathecal injection compared to naïve animals.
MGS_NOE3-V2-4 was labeled with Alexa Fluor 647 and injected intrathecally in a C57BL/6 mouse. After the peptide circulated for 1 hr, the animal was euthanized, and the brain tissue was harvested. The whole brain was subsequently dissociated using the Miltenyi Biotec gentleMACS Octo Dissociator. The number of MGS_NOE3_V2-4 molecules internalized into brain cells were analyzed by flow cytometry (BD FACSCelesta).
Alternatively, all CNS cells were analyzed as a mixture by dissociating the brain using the Miltenyi Biotec gentleMACS Octo Dissociator. No enrichment for a CNS subpopulation was performed and cells were directly analyzed by flow cytometry. Gating was used to eliminate cell debris and cell doublets.

Series [6] has as its system HT22 cells. Description: Confocal live cell imaging of internalization into HT22 cells. The settings on record: 200 nM, 37° C., Alexa Fluor 647.
Procedure: Cells were incubated with 200 nM, and the average uptake per cell was determined. […] Alexa Fluor 488 conjugated wheat germ agglutinin was used to label the cell membrane and Hoechst 33342 was used to stain the nucleus. Live cell imaging was performed, and representative images are shown.
AlexaFluor488 conjugated wheat germ agglutinin was used to label the cell membrane and Hoechst 33342 was used to stain the nucleus. Live cell imaging was performed, and representative images are shown.
The test cells were seeded in 35 mm confocal microscopy dish 24 hours prior to treatment. The test peptides labeled with Alexa Fluor 647 were incubated on cells in media for the indicated time at 37° C. After incubation, the cells were washed 3 times with PBS, 2 times with 0.1 M HCl-glycine pH 2.2 in 0.9% NaCl and 1 time with PBS. Alexa Fluor 488 conjugated wheat germ agglutinin was used to label the cell membrane and Hoechst 33342 was used to stain the nucleus. Microscopy was acquired on a Zeiss LSM 700 with a Pln Apo 63×/1.4 oil DIC III objective. Images were processed using Zen software.
For peptides that were biotinylated instead of direct labeling with Alexa Fluor 647, the peptide-SA-AF647 conjugate was prepared by mixing Alexa Fluor™ 647 conjugated streptavidin and biotinylated peptide with an equal molecular ratio in 100 μl PBS for 30 minutes at room temperature. […]
Series [7] addresses Recombinant human transferrin receptor (Homo sapiens, UniProt P02786). Description: ELISA binding to plate-absorbed transferrin receptor. Particulars: receptor at 1 μg/mL, biotinylated peptide at varying concentrations, 1 h. How it is done:
Recombinant human transferrin receptor was absorbed onto high binding ELISA plates at 1 μg/mL. […] Retained MTS peptide was detected using streptavidin-HRP and TMB reagent. The absorbance was measured at 450 nm and is proportional to the amount of MTS peptide captured by transferrin receptor. […] By comparison, MTS3_V1-2 and a scrambled control peptide of MTS2_V1-2 show no binding. The binding affinity of MTS2_V1-2 for transferrin receptor was determined by biolayer interferometry on a OctetRED 96 system. The biotinylated MTS2_V1-2 peptide was captured on streptavidin probe. The kon and koff rate were determined at various concentrations of human or mouse transferrin receptor allowing for determination of the dissociation constant.
(ELISA stands for enzyme-linked immunosorbent assay.)

For series [8], the system named is HMC3 cells (human microglia cell line). In words: Peptide uptake by quantitative flow cytometry in HMC3 cells. In kind it is cell-based. As to the method:
Under both cell states, an average of ˜60,000 molecules of MGS2_V4-2 were internalized. […] All cell lines were incubated with MGS2_V4-2 at 25 nM for 1 hour at 37° C.
Cells were incubated at the indicated concentration of each peptide construct that had been labeled with Alexa Fluor 647. After 1 h incubation at 37° C., uptake was determined by quantitative flow cytometry. […] Thus, uptake is mediated by the MGS not the MTS.
However, binding was rescued by using the tetrameric MGS2_V4-4 as the targeting peptide in this multifunctional chimera (shown in panel A).
as §2
HMC3 cells were activated with interferon-gamma (IFN-γ) (10 ng/ml, 24 h). Resting phenotype was characterized by expression of IBA1, and endotoxin receptor CD14, but negative for the astrocyte marker GFAP. […] In Vivo MTS and MTS-MGS Targeting Experiments

For series [9] the following is noted: rat, in vivo.
Procedure: Coronal slices are 1 mm and arranged from the front (upper left) to back (lower right).
Coronal slices of 1 mm thickness are prepared using a brain matrix. The slices are imaged on an Odyssey Imager collecting fluorescent signal at 800 nm.
For series [10] the following is noted: rat, in vivo. This is another data set of the same source.
Procedure: MTS variants labeled with the near infrared dye Alexa Fluor 750 were injected into the tail vein of Sprague Dawley rats at 1 μg MTS/kg rat body weight. At the indicated time, CSF was isolated via capillary puncture of the cisterna magna. […] To assure the fatty acid is not driving the transport into the CNS, a control peptide scMTS3_V2-2 which contains the MTS3 amino acid composition but with a scrambled sequence was lipidated.
The MTS peptide directly conjugated to Alexa Fluor 750 dye (1 μg/g body weight) is injected via lateral tail vein into a Sprague-Dawley Rat and allowed to circulate for the indicated time (20 min, 1 h 6 h, 24 h). The animal is anesthetized 10 mins prior to the end of the time point and 2 mL 200× Heparinized Saline is injected intraperitoneally. To collect the CSF, a blunt dissection of the back of the neck is performed to expose the clear dura mater covering the cisterna magna. Using a glass micropipette, CSF is aspirated from the cisterna magna at the indicated time point. Following CSF collection, a transcardial perfusion is performed by flushing with 500 mL ice cold 1× PBS containing heparin to remove any blood from the body. The brain and other tissues are isolated. The brain is homogenized using a Dounce homogenizer in lysis buffer (30 mM Tris-HCl, pH 8.0 0.05% Triton X-100) and the soluble fraction collected. […]
Series [11] can be described thus: Serum stability (RP-HPLC of Alexa Fluor 647 labeled peptide). It is filed as in vitro ADME. Particulars: 37° C., 24 h. How it is done: MGS2_V4-2 labeled with Alex Fluor 647 was incubated in human serum at 37° C. At the indicated times, an aliquot was removed, serum proteins were precipitated, and the resultant supernatant was analyzed by reverse phase HPLC monitoring the absorbance at 650 nm. Chromatograms for each time point are shown. Intact peptide has a retention time at 11.864. […] Peaks were integrated to determine the percentage of intact peptide as well as the amount of observed degradation product. At 24 h, >75% of the MGS2_V4-2 is still intact. Electrospray mass spectrometry was performed on the peptide product arising at the 10.005 min retention time. The mass of this new species corresponds to the loss of the 3 amino acids on both branches of MGS2_V4-2.
The concentration of a solution of peptide conjugated with dye (Alexa Fluor 647) was determine by absorbance at 651 nm and ˜14 nmol of peptide was lyophilized. The lyophilized peptide powder was dissolved in 400 μL of human serum (Innovative Research, H6430) to achieve a 35 μM solution. The sample was incubated at 37° C. and shaken. For each time point (0, 1, 2, 4, 20 and 24 hours), a 50 μL aliquot was removed from the reaction and 100 μL of absolute ethanol was added to precipitate serum proteins. Samples were incubated on ice for 15 mins before being centrifuged at 12,000 rpm for 5 mins. […] Finally, 100 μL of each sample were analyzed by analysis RP-HPLC.

Sequence of Recombinant human transferrin receptor (P02786 whole entry): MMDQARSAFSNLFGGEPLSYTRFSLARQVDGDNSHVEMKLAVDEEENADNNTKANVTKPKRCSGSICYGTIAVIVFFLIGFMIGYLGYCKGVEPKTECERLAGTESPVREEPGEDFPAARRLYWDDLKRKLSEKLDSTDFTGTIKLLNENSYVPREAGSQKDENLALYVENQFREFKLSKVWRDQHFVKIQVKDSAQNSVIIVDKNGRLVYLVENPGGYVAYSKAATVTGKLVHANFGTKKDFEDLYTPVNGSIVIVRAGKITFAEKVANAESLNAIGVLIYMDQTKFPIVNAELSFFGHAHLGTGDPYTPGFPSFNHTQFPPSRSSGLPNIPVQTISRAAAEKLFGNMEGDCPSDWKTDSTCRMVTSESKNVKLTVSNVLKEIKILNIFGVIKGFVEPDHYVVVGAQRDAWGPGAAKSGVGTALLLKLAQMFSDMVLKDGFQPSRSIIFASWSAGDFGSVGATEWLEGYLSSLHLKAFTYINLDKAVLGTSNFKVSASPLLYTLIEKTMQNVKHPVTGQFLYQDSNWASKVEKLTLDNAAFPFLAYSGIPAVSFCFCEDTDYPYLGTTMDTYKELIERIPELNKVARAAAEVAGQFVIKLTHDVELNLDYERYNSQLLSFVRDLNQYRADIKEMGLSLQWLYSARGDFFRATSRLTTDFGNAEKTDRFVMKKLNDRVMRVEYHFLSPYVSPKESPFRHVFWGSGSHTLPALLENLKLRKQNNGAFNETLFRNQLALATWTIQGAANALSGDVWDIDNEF

Regarding `C[C@@H]1C[C@@H]([C@H](O)CC2CC(=O)NC(=O)C2)C(=O)[C@@H](C)C1` [Cycloheximide], the “Effect on MGS_NOE3_V2-4 uptake” value in [1] is “no impact on MGS_NOE3_V2-4 uptake”.
Regarding `CCN(CC)CCCC(C)Nc1ccnc2cc(Cl)ccc12` (stereo not shown) [chloroquine], in [1], the “Effect on MGS_NOE3_V2-4 uptake” value was “greatly reduces uptake”.
For “Ac-GFHNVYPYTWGGFSDIDLMADEI [MGS_NOE3_V2]”, the “Uptake into HT22 cells versus concentration (in words)” value in series [2] is recorded as “no uptake was observed on HT22 cells”.
Take Ac-YAAWPASGAWT: in [3], the fragment found entry is recorded as “loss of the 3 amino acids on both branches of MGS2_V4-2, 1 h”.
For “MGS_NOE3_V1-4: tetrameric version of GFHNVYPYTWGGFSDIDLMADEI (SEQ ID NO:1) (also: tetrameric construct on a core linker)”, the “Specificity for neurons compared to microglia” value in series [4] came to 3 fold.
In the case of “MGS_NOE3_V2-2 (Ac-GFHNVYPYTWGGFSDIDLMADEI; also: dimer)”, the “Uptake into HT22 cells versus concentration (in words)” value in series [2] was “no uptake was observed on HT22 cells”.
For “MGS_NOE3_V2-4: tetrameric version of Ac-GFHNVYPYTWGGFSDIDLMADEI (SEQ ID NO:5) (also: tetrameric construct)”, the “Uptake into HT22 cells over time (in words)” value in series [2] (200 nM, 37° C.) was “increases over time”. In addition, the “Uptake into HT22 cells versus concentration (in words)” value in series [2] is reported as “increases with increasing concentration”. Moreover, the Intracellular concentration reached entry in series [2] (uptake to at least 24 H) is on record as “≈ 1 μM”. For the same compound, the “Association with brain cells after intrathecal injection” value in series [5] is given as “associated with cells in the CNS after intrathecal injection”. Besides, the “Internalization into HT22 cells by confocal live cell imaging” value in series [6] is reported as “internalized into neuronal cells”. The “Specificity for neurons compared to microglia” value in series [4] came out at 3 fold.
For the compound “MTS3_V1-2 (Ac-SKETYSMNAQRQHERS; also: dimer)”, the “Binding to transferrin receptor in ELISA (absorbance at 450 nm)” value in series [7] was “no binding”. Also, the “Cellular uptake in HMC3 cells (in words)” value in series [8] (1 h at 37° C., quantitative flow cytometry) was “no significant cellular uptake at any of the concentrations tested”.
With “MTS3_V2-2 (Ac-SKETYSMNAQRQHERS; also: dimer, C16 fatty acid)”, the “Brain uptake by fluorescent imaging of 1 mm coronal slices” value in [9] is recorded as “increased brain uptake compared to MTS3_V1-2 at all time points”. In series [10], the “Transport into the brain parenchyma, fold higher than nonmodified MTS3_V1-2” value is recorded as 10-12 fold and the “Transport into the brain parenchyma, fold higher than scrambled control scMTS3_V2-2” value was 17-31 fold.
Regarding “dimer version of MTS2_V1, Ac-FPSWTSKNQQWTNQRQ (also: dimer) [MTS2_V1-2]”, the “Binding to transferrin receptor in ELISA (absorbance at 450 nm)” value in series [7] is “binds to human transferrin in a concentration dependent manner which saturates at higher concentrations”.
On to “dimeric form of MGS2_V4, Ac-YAAWPASGAWT (SEQ ID NO:8) [MGS2_V4-2]”, for which the “Uptake in HMC3 cells versus other CNS cell lines (specificity)” value in [8] (25 nM, 1 hour at 37° C., versus neuronal cells, Schwann cell, astrocytes) is listed as “significantly higher in HMC3 cells than other cells of the central nervous system”. The “Molecules internalized (average)” value in series [8] (HMC3 cells of resting or activated phenotype, 1 hour) is reported as ~60,000 molecules. Also, the EC50 in [8] (HMC3 cells, 1 h at 37° C., read-out: EC50 (half maximal uptake)) stood at 7.3 nM. Moreover, in [11], the “Intact peptide in human serum” value is reported as more than 75%.
